Measured values reported in US7541353B2, “Compounds for the treatment of hepatitis C” (Bristol-Myers Squibb Company, priority 2007, dated 2009).
Where two headings read alike, the source gives them in different places.

Columns and labels:
HCV replicon cells = assay: HCV replicon FRET assay; format: cell-based
Description: FRET Assay Preparation. The HCV FRET screening assay was performed in 96-well cell culture plates. The FRET peptide (Anaspec, Inc.) (Taliani et al., Anal. Biochem. 1996, 240, 60-67) contains a fluorescence donor, EDANS, near one end of the peptide and an acceptor, DABCYL, near the other end. The fluorescence of the peptide is quenched by […] resonance energy transfer (RET) between the donor and the acceptor, but as the NS3 protease cleaves the peptide the products are released from RET quenching and the fluorescence of the donor becomes apparent. The assay reagent was made as follows: 5× cell Luciferase cell culture lysis reagent from Promega (#E153A) diluted to 1× with dH2O, NaCl added to 150 mM final, the FRET peptide diluted to 20 μM final from a 2 mM stock.
To prepare plates, HCV replicon cells, with or without a Renilla luciferase reporter gene, were trypsinized and plated in a 96-well plate with titrated test compounds added in columns 3 through 12; columns 1 and 2 contained a control compound (HCV control inhibitor), and the bottom row contained cells with DMSO only. The plates were then placed in a CO2 incubator at 37° C.
Assays. Subsequent to addition of the test compounds described above (FRET Assay Preparation), at various times the plate was removed and Alamar blue solution (Trek Diagnostics, #00-100) was added to measure cellular toxicity. After reading in a Cytoflour 4000 instrument (PE Biosystems), plates were rinsed with PBS and then used for FRET assay by the addition of 30 ul of the FRET peptide assay reagent described above (FRET Assay Preparation) per well. The plate was then placed into the Cytoflour 4000 instrument which had been set to 340 excite/490 emission, automatic mode for up to 20 cycles and the plate read in a kinetic mode. Typically, the signal to noise using an endpoint analysis after the reads was at least three-fold. Alternatively, after Alamar blue reading, plates were rinsed with PBS, then used for luciferase assay using the Promega Dual-Glo Luciferase Assay System or the Promega EnduRen Live Cell Substrate assay.
Compound analysis was performed by quantification of the relative HCV replicon inhibition and the relative cytotoxicity values. To calculate cytoxicity values, the average Alamar Blue fluorescence signals from the control wells were set as 100% non-toxic. The individual signals in each of the compound test wells were then divided by the average control signal and multiplied by 100% to determine […]. To calculate the HCV replicon inhibition values, an average background value was obtained from the two wells containing the highest amount of HCV control inhibitor at the end of the assay period. These numbers were similar to those obtained from naïve Huh-7 cells. The background numbers were then subtracted from the average signal obtained from the control wells and this number was used as 100% activity. The individual signals in each of the compound test wells were then divided by the averaged control values after background subtraction and multiplied by 100% to determine percent activity. EC50 values were calculated as the concentration which caused a 50% reduction in FRET or luciferase activity. The two numbers generated for the compound plate, percent cytoxicity and percent activity, were used to determine compounds of interest for further analysis.

HCV NS5B = target: T1, HCV NS5B (Hepatitis C virus genotype 1b, UniProt Q9WMX2); assay: Modified HCV NS5B RdRp enzyme assay (preincubation protocol); format: biochemical
T1 construct: The cDNA encoding the NS5B protein of HCV, genotype 1b; made in house; host or cells: E. coli BL21(DE3)
T1 sequence (Q9WMX2 2420-2992): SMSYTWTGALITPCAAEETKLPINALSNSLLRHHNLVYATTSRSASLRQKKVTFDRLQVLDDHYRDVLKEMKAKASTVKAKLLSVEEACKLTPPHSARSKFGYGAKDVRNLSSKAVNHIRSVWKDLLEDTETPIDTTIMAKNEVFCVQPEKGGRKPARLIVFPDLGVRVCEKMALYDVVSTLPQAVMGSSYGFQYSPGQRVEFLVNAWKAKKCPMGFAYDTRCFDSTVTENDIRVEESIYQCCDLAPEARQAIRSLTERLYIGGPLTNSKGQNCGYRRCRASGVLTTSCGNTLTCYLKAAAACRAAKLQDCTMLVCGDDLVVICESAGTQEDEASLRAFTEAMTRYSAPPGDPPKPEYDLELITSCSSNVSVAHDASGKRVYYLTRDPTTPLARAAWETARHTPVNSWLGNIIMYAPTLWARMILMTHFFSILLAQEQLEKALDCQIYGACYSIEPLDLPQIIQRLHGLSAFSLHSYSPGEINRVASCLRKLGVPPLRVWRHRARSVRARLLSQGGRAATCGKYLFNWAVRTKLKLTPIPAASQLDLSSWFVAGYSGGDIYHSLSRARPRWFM
Description: HCV NS5B RdRp cloning, expression, and purification. The cDNA encoding the NS5B protein of HCV, genotype 1b, was cloned into the pET21a expression vector. The protein was expressed with an 18 amino acid C-terminal truncation to enhance the solubility. The E. coli competent cell line BL21(DE3) was used for expression of the protein. Cultures were grown at 37° C. for ˜4 hours until the cultures reached an optical density of 2.0 at 600 nm. The cultures were cooled to 20° C. and induced with 1 mM IPTG. Fresh ampicillin was added to a final concentration of 50 μg/ml and the cells were grown overnight at 20° C.
Cell pellets (3L) were lysed for purification to yield 15-24 mgs of purified NS5B. The lysis buffer consisted of 20 mM Tris-HCl, pH 7.4, 500 mM NaCl, 0.5% triton X-100, 1 mM DTT, 1 mM EDTA, 20% glycerol, 0.5 mg/ml lysozyme, 10 mM MgCl2, 15 ug/ml deoxyribonuclease I, and Complete™ protease inhibitor tablets (Roche). After addition of the lysis buffer, frozen cell pellets were resuspended using a tissue homogenizer. To reduce the viscosity of the sample, aliquots of the lysate were sonicated on ice using a microtip attached to a Branson sonicator. The sonicated lysate was centrifuged at 100,000×g for 1 hr at 4° C. and filtered through a 0.2 μm filter unit (Corning).
The protein was purified using two sequential chromatography steps: Heparin sepharose CL-6B and polyU sepharose 4B (Pharmacia). The chromatography buffers were identical to the lysis buffer but contained no lysozyme, deoxyribonuclease I, MgCl2 or protease inhibitor and the NaCl concentration of the buffer was adjusted according to the requirements for charging the protein onto the column. Each column was eluted with a NaCl gradient which varied in length from 5-50 column volumes depending on the column type. After the final chromatography step, the resulting purity of the enzyme is >90% based on SDS-PAGE analysis. The enzyme was aliquoted and stored at −80° C.
Standard HCV NS5B RdRp enzyme assay. HCV RdRp genotype 1b assays were run in a final volume of 60 μl in 96 well plates (Corning 3600). The assay buffer is composed of 20 mM Hepes, pH 7.5, 2.5 mM KCl, 2.5 mM MgCl2, 1 mM DTT, 1.6 U RNAse inhibitor (Promega N2515), 0.01 mg/ml BSA (Sigma B6917), and 2% glycerol. All compounds were serially diluted (3-fold) in DMSO and diluted further in water such that the final concentration of DMSO in the assay was 2%. HCV RdRp genotype 1b enzyme was used at a final concentration of 28 nM. A polyA template was used at 6 nM, and a biotinylated oligo-dT12 primer was used at 180 nM final concentration. Template was obtained commercially (Amersham 27-4110). Biotinylated primer was prepared by Sigma Genosys. 3H-UTP was used at 0.6 μCi (0.29 μM total UTP). Reactions were initiated by the addition of enzyme, incubated at 30° C. for 60 min, and stopped by adding 25 μl of 50 mM EDTA containing SPA beads (4 μg/μl, Amersham RPNQ 0007). Plates were read on a Packard Top Count NXT after >1 hr incubation at room temperature.
Modified HCV NS5B RdRp enzyme assay. A modified enzyme assay was performed essentially as described for the standard enzyme assay except for the following: The biotinylated oligo dT12 primer was precaptured on streptavidin-coated SPA beads by mixing primer and beads in assay buffer and incubating at room temperature for one hour. Unbound primer was removed after centrifugation. The primer-bound beads were resuspended in 20 mM Hepes buffer, pH 7.5 and used in the assay at final concentrations of 20 nM primer and 0.67 μg/μl beads. Order of addition in the assay: enzyme (1.75 nM) was added to diluted compound followed by the addition of a mixture of template (0.36 nM), 3H-UTP (0.6 μCi, 0.29 μM), and primer-bound beads, to initiate the reaction; concentrations given are final. Reactions were allowed to proceed for 4 hours at 30° C.
IC50 values for compounds were determined using seven different [I]. […]

Compound	EC50 (HCV replicon cells; FRET assay) [nM]	IC50 (HCV NS5B; preincubation protocol) [nM]	EC50 (HCV replicon cells; Hepatitis C virus) [nM]	IC50 (HCV NS5B) [nM]
COc1ccc2c(c1)C1CC1(C(=O)N1C3CCC1CC(N(C)Cc1ccccc1)C3)Cn1c-2c(C2CCCCC2)c2ccc(C(=O)NS(=O)(=O)C(C)C)cc21 (stereo not drawn) [drawing 55]	4.58 to 500	4.58 to 500		
COc1ccc2c(c1)C1CC1(C(=O)N1C3CCC1CC(N(C)Cc1ccccc1)C3)Cn1c-2c(C2CCCCC2)c2ccc(C(=O)NS(=O)(=O)C(C)C)cc21 (stereo not drawn) [drawing 56]	4.58 to 500	4.58 to 500		
COc1ccc2c(c1)C1CC1(C(=O)N1C3CCCC1COC3)Cn1c-2c(C2CCCCC2)c2ccc(C(=O)NS(=O)(=O)C3CCCCC3)cc21 (stereo not drawn) [drawing 68]			4.58 to 500	4.58 to 500
